In ChEMBL document CHEMBL3988181, “GlaxoSmithKline Published Kinase Inhibitor Set 2 Onchocerca lienalis Screening Data”:
“And” between values parts separate entries of the source, which are not always exact repeats. Identical values can stand only once.

assay: GSK PKIS2: Screen against O. lienalis microfilariae, single point, at 3.1uM to assess reduction in motility. Compounds were also tested for cytotoxicity against Rhesus Monkey LLCMK2 cells.; format: functional, Onchocerca lienalis, LLC-MK2; conditions: CELL_LINE LLCMK2; CELL_SUPPLIER ECACC; CONC 3.1 uM; ORGANISM_SUPPLIER Extracted from peri-umbilical skin obtained from naturally infected cattle in the UK; temperature 37 degree C

Structure (SMILES)	MOTILITY REDUCTION/CYTOTOXICITY [%]
Fc1ccc(-c2ncn(C3CCNCC3)c2-c2ccnc(Oc3ccc(-c4ccccc4)cc3)n2)cc1	0
COc1ccc(C2=C(Nc3cccc(O)c3)C(=O)NC2=O)cc1	13.4
Cc1nccc(-c2c(-c3ccc(F)cc3)ncn2CCCN2CCOCC2)n1	0
COc1cccc(C2=C(Nc3cccc(Cl)c3)C(=O)NC2=O)c1	0
O=C1NC(=O)C(c2ccccc2)=C1Nc1cc(Cl)c(O)c(Cl)c1	0
CCn1c(-c2ccccn2)nc2cnccc21	0
CCN1CCN(CCCC(=O)Nc2n[nH]c3nc(-c4ccc(O)cc4)c(Br)cc23)CC1	20
Nc1n[nH]c2nnc(-c3ccccc3)cc12	0
CN(C)CCOc1ccc(-c2cc(-c3c[nH]nc3-c3ccccn3)ccn2)cc1	0
Nc1ncnc2[nH]c(-c3ccccc3)nc12	0
Nc1ncnc2c1nc(-c1ccccc1)n2-c1ccccc1	0
C=CC(=O)Nc1cc2c(Nc3ccc(F)c(Cl)c3)ncnc2cc1OCCCN1CCOCC1 [CANERTINIB]	0
CN(C)c1ncnc2nc[nH]c12 [DIMETHYLADENINE]	0
Cc1ccc(-n2nc(C(C)(C)C)cc2NC(=O)Nc2ccc(OCCN3CCOCC3)c3ccccc23)cc1 [DORAMAPIMOD]	33.4
CCn1c(-c2nonc2N)nc2ccccc21 [GW549034X]	0
Nc1ncnc2occ(-c3ccc(NC(=O)Nc4cc(C(F)(F)F)ccc4F)cc3)c12 [GW770249X]	0
CCN(CC)CCOc1ccc(Nc2ncc3cc(-c4c(Cl)cccc4Cl)c(=O)n(C)c3n2)cc1 [PD-0166285]	33.4

same assay, conditions: CELL_LINE LLCMK2; CELL_SUPPLIER ECACC; CONC 3.1 uM; ORGANISM_SUPPLIER Extracted from peri-umbilical skin obtained from naturally infected cattle in the UK; temperature 37 degree C; 3.1 µM

Structure (SMILES)	MOTILITY REDUCTION/CYTOTOXICITY
CSc1nn2c(=O)cc(N3CCOCC3)nc2n1Cc1cccc(C(F)(F)F)c1C	16.7% and 0%
